Test results taken from patent publication US7094809B2, “Method of treating subject infected with Neisseria gonorrhea” (Northeastern Ohio Universities College of Medicine, priority 2000, dated 2006).

Legend:
HSV-1 [1] = test: HSV-1 plaque assay, infected Vero cells, moi 1 (Example 3); format: cell-based
Description: Cultures of African green monkey kidney cells (Vero) cells, obtained from the American Type Culture Collection, Rockville, Md. were grown to confluence in Medium 199 supplemented with 5% fetal bovine serum, 0.075% NaHCO3, and 50 μg/ml gentamycin sulfate in 25 cm^2 tissue culture flasks. Cells were infected with HSV-1 at a multiplicity of infection (moi) of one and incubated at room temperature for one hour to allow for virus attachment to and penetration of the cell. Under these conditions, approximately half of the cells are infected with virus. Thereafter, the cultures were rinsed three time with media and incubated in medium containing 50 μM or 75 μM 4, 4′-dihydroxytolan prepared in 0.2% dimethyl-sulfoxide (DMSO). Controls were treated identically, but were incubated without the dihyroxylated tolan. For purposes of comparison, HSV cell were also inoculated in the presence of 52.5 μM 4,4′-dihydroxystilbene. Due to the higher cell toxicity of the stilbene, cells were not incubated in the presence of 75 μM dihydroxystilbene.
Upon addition of the medium to the cultures and at 24 hours time periods thereafter, i.e., 0 hours, 24 hours, 48 hours, and 72 hours after addition of the drug, cells and medium were frozen at −70° C. Samples were then thawed, sonicated and titrated on Vero cells to determine the number of plaque forming units (pfu's) of virus produced by each culture.

Vero cells [2] = test: Cell viability studies, uninfected Vero cells; format: cell-based, African green monkey; conditions: 105 μM, 24 hours
Description: Cell viability studies confirmed that treatment of uninfected Vero cells with 105 μM 4,4′-dihydroxytolan for 24 hours was not toxic.

HSV-1 [3] = test: Direct inactivation of HSV-1 inoculum, residual pfu by plaque assay; format: cell-based; conditions: 105 μM, room temperature, 1 to 60 minutes, data not shown
Description: To determine whether hydroxylated tolans block formation of infectious herpes virus particles by directly inactivating the virus, a standard inoculum of HSV-1 was mixed with 105 μM 4,4′-dihydroxytolan in medium, with 0.2% DMSO in medium, or with media alone and placed at room temperature. The number of residual pfu's present at 1, 10, 30, and 60 minutes after addition of each respective solution to the virus was determined by plaque assay.

HSV-1 [4] = test: Inhibition of HSV-1 replication in vitro, plaque assay (Example 9); format: cell-based
Description: Tissue culture cells were infected with HSV-1 and incubated in solutions containing Tolan-5, Tolan-10 and Tolan-11. The concentrations used ranged from one-half to three-quarters of the calculated CD50 for the respective tolan at 48 hours of treatment. Specifically, Vero cells were infected with HSV-1 at a multiplicity of infection of one for one hour. At the end of that time, the cultures were rinsed with media and fresh media containing various concentration of the respective tolan were added. Infected control cultures were incubated in media lacking hydroxylated tolan. At 1, 24, 48, and 72 hours after infection, samples were frozen at −70° C. until assayed for new virus production. Virus production was quantified by the plaque assay for each time point of infection. The results, which are expressed as plaque forming units per milliliter (pfu/ml).

ICP-27 = test: Western blot of ICP-27 in HSV-1 infected Vero cells; format: cell-based; conditions: 105 μM, 24 hours
Description: (§1) ICP-4 and ICP-27 are immediate-early regulatory proteins of HSV-1 that are required for efficient replication of this virus. To determine whether ICP-4 or ICP-27 production is altered by treatment with a hydroxylated tolan, separate cultures of Vero cells were infected with HSV-1 at an moi of 1 and incubated in control medium or medium containing 105 μM 4,4′-dihydroxytolan for 24 hours. Infected cells were scraped from the flask, collected by centrifugation, and resuspended in cold tris-buffered saline, pelleted by centrifugation, and the cell pellet frozen at −70° C. Proteins were extracted from the thawed pellets, separated by 6–15% SDS-PAGE, and assayed on a Western blot by reacting with mouse monoclonal antibody to ICP-4 or ICP-27 from Goodwin Institute for Cancer Research Inc., FL.

Vero cells [5] = test: MTT colorimetric cell toxicity assay; format: cell-based, African green monkey
Description: Cell toxicity of the tolans 4,4′-dihydroxytolan (“Tolan-5”), 3,4′,5-trihydroxytolan (“Tolan-10”) and 4-hydroxy-4′-trifluoromethyltolan (“Tolan-11”) was determined using an MTT assay. In this assay, cells are exposed to MTT, 3-(4,5-dimethylthiazol-2-yl)-2,5-diphenyltetrazolium bromide, which is taken into the cells and reduced by mitochondrial dehydrogenase to a purple formazan, a large molecule which is unable to pass through intact cell membranes, and therefore accumulates in healthy cells. The ability of cells to reduce MTT is an indication of mitochondrial integrity and activity, which may be interpreted as a measure of viability. Solubilization of the cells results in the liberation of the product which can readily be detected spectrophotometrically.
Various concentrations of Tolan-5, Tolan-10 and Tolan-11 were added to 96 well tissue culture plates that had been seeded with Vero cells. The plates were then incubated at 37° C. in 5% CO2/95% air for 24, 48 and 72 hours. At the end of each time point, 50 μl of MTT (1 mg/ml) was added to the tissue culture plates which were then incubated for an additional four hours. At the end of that time, dimethyl sulfoxide (DMSO) was added to dissolve the cells and formazan, and the plates were read spectrophotometrically at 540 nm. […] Presented in Table I below are the toxicity results for Tolan-5, Tolan-10, and Tolan-11 measured at 24, 48 and 72 hours of treatment.

ICP-4 = test: Western blot of ICP-4 in HSV-1 infected Vero cells; format: cell-based; conditions: 105 μM, 24 hours
Description: as §1

HSV-1 [6] = test: HSV-1 plaque assay, time of drug addition, Vero cells, moi 10 (Example 4); format: cell-based
Description: Vero cell cultures were infected with HSV-1 as described above in Example 3 except that the cells were infected with virus at an moi of 10. Under these conditions nearly all of the cells are infected with virus during the initial one hour incubation period. Following removal of unattached virus, the virally-infected cultures were incubated in control medium lacking a hydroxylated tolan or medium to which 105 μM 4,4′-dihydroxytolan had been added at 1, 3, 6, or 9 hours after removal of the unattached virus. At 24 hours after infection, the number of pfu's present in the cells and medium of untreated and hydroxylated tolan-treated cultures was determined.

HSV-1 [7] = test: Reversibility of inhibition of HSV replication, Vero cells, moi 1 (Example 5); format: cell-based; conditions: 105 μM
Description: Vero cells were grown to confluence and infected with HSV-1 at an moi of 1 and then incubated in media lacking a hydroxylated tolan (control cultures) or in media containing 105 μM 4,4′-dihydroxytolan. One set of infected cells was maintained in the dihydroxylatedtolan for a period of 72 hours. In another set of infected cells the dihydroxytolan-containing media was replaced with media lacking a hydroxylated tolan at 24 hours. In another set of cells the tolan-containing media was replaced with media lacking the hydroxylated tolan at 48 hours after infection. The number of infectious HSV particles produced by each set of infected cells was determined by plaque assay.

Oc1ccc(C#Cc2ccc(O)cc2)cc1 [Tolan-5, 4,4′-dihydroxytolan]
reduction of new virus production (HSV-1 [1]; 50 μM): 95%
infectious HSV particles in cultures (HSV-1 [1]; 75 μM continuously, by 72 hours): virtually undetectable
inhibition at 75 µM (HSV-1 [1]; Human alphaherpesvirus 1, 75 μM, 24 hours, Vero cells, moi 1, read-out: inhibition of formation of infectious virus particles): > 99%
toxicity to uninfected Vero cells (Vero cells [2]): not toxic
direct inactivation of HSV (HSV-1 [3]): did not directly inactivate HSV
inhibition of virus, comparison of concentrations (HSV-1 [4]; 75 μm versus 50 μm): more inhibitory to the virus at 75 μm that at 50 μm
HSV-1 production (HSV-1 [4]; Vero cells, moi 1, up to 72 hours): inhibited HSV-1 production
synthesis of ICP-27 (ICP-27): significantly reduced
CD50 (Vero cells [5]; 48 hours): 106 µM
CD50 (Vero cells [5]; 72 hours): 84.0 µM
synthesis of ICP-4 (ICP-4): significantly reduced
inhibition of production of virus (HSV-1 [6]; 105 μM added 6 hours after infection, pfu at 24 hours, moi 10): approximately 90%
reduction of production of virus (HSV-1 [6]; 105 μM added one hour after infection, pfu at 24 hours, moi 10): more than 99%
inhibition at 105 µM (HSV-1 [6]; Human alphaherpesvirus 1, Vero, 105 μM added 3 hours after infection, pfu at 24 hours, moi 10, read-out: inhibition of production of virus): ~90%
formation of infectious virus particles (HSV-1 [6]; added 9 hours after infection): not inhibited
reversibility of inhibitory effect on HSV replication (HSV-1 [7]; drug removed at 24 or 48 hours): reversible
cell killing on prolonged exposure (HSV-1 [7]; prolonged period of time, mammalian cells): does not kill the cells
